The assay concerns the target T1, BbEng1 (Beauveria bassiana, UniProt J4W7P1).
T1 construct: gene BBA_04753; full precursor 588 aa, 21-residue signal peptide removed; GH16 domain 22-343; expressed in Pichia pastoris GS115 (pPIC9K), purified, detected by anti-His tag
As to the kind of experiment: glucose release, glucose oxidase method. Format: biochemical. To be noted: pH 6.0 (50 mM sodium acetate buffer), 37 °C, 1 h.

T1 sequence (J4W7P1 entry or part of it): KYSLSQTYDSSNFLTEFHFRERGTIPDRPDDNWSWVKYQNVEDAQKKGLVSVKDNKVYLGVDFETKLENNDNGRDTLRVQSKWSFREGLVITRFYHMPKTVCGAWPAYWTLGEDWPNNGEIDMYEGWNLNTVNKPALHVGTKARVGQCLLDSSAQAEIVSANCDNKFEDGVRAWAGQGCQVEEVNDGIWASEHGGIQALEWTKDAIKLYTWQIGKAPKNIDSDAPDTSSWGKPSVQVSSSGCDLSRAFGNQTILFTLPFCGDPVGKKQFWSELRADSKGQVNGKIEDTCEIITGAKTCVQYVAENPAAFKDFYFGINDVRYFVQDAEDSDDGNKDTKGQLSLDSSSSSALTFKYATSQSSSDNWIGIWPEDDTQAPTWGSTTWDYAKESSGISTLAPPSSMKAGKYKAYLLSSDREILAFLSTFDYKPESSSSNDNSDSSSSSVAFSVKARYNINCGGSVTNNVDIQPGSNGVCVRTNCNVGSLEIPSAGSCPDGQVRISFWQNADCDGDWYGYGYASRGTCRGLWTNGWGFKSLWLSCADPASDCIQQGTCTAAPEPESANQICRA

Take `OC[C@H]1O[C@@H](O[C@@H]2[C@@H](O)[C@H](O[C@@H]3[C@@H](O)[C@H](O[C@H]4[C@H](O)[C@@H](CO)OC(O)[C@@H]4O)O[C@H](CO)[C@H]3O)O[C@H](CO)[C@H]2O)[C@H](O)[C@@H](O)[C@@H]1O` (stereo partly shown) [laminaritetraose]: the “glucose release, glucose oxidase method” value is on record as “Measurement of glucanase activity indicated release of reducing sugar from laminaritetraose (β-1,3-glucose)”.

For the origin of these results see PMC10441804, “Insect fungal pathogens secrete a cell wall-associated glucanase that acts to help avoid recognition by the host immune system” (PLOS Pathogens, 2023).
